In patent US20250224410A1, “READY-TO-[…] FOR CHEMICAL ANALYSES AND QUANTIFICATION OF ANALYTES IN BIOLOGICAL SAMPLES” (PinPoint Testing, LLC, priority 2021, published 2025):
“Also recorded” adds a separate entry of the source.

Legend:
[1] = system: purified recombinant beta glucuronidase (KURA); experiment: Storage stability of analytical standards in ready-to-use test kits at −20° C. with recombinant beta-glucuronidase; assay type: physicochemical; settings: for stability of the standard in ready-to-use kits (free drug degradant peak area normalized to codeine): kits made with suspended solid state and solid state (direct enzyme interface, urine matrix interface) technology, snap frozen at −20° C., LC-MS/MS
Method: (§1) Both (A) purified recombinant beta glucuronidase (KURA) and (B) beta glucuronidase purified from abalone tissue show similar results. Complete degradation was estimated by incubating the buprenorphine glucuronic acid standard under optimum reaction conditions for 1 hr. Negative controls were processed like that of mixed kits but excluded the respective beta-glucuronidase enzyme to measure non-specific degradation. All samples were extracted with acetonitrile prior to analysis using a liquid chromatography tandem mass spectrometry method optimized for buprenorphine. Where possible beta-glucuronidase enzyme was removed from suspended solid state, direct enzyme, and urine matrix samples prior to extraction. Acetonitrile was directly added to frozen mixed kits and negative controls to immediately degrade the beta glucuronidase enzyme. Removal of enzyme prior to extraction and the quick addition of acetonitrile limited degradation associated with sample processing and provided a better measurement of storage stability. Peak area of the degradant (free drug) was normalized to the response of codeine which was included to control for day-to-day and analytical variation. Data are presented as average±standard deviation (n=3-4). All experimental groups were manufactured and snap frozen at −20° C. prior to analysis.
(§2) Therefore, novel technology is required to stabilize process control specimens if ready-to-use formats are to be developed for analytical laboratories. Three new technologies (suspended solid state, direct enzyme interface, and urine matrix interface technology) were investigated to determine their utility in ready-to-use analytical test kit designs. While all three technologies afforded significant protection and stabilized the manufacturing process, only the suspended state and urine matrix technologies provided complete stability for 14 days in kits stored at −20° C.
(§3) The amount of degradation is independent of the source of the beta glucuronidase and remains constant for 14 days when kits are stored at −20° C. This storage temperature was selected because it is mostly commonly utilized by analytical testing laboratories. Degradation is specifically associated with manufacturing and storage because acetonitrile used for sample extraction was added immediately to frozen kits to degrade the beta-glucuronidase enzyme prior to sample processing and where possible (solid-state, direct enzyme interface, and matrix interface samples) the beta-glucuronidase enzyme was removed prior to sample extraction. These measures minimized any degradation that may have occurred during sample processing.
A 48-well plate from Innovative Labs (48 Rectangular Well U-Bottom 42.60 mm Height, 4.6 mL capacity) was formulated with various combinations of a mixture of glucuronidated drugs purchased from Cerilliant, Round Rock Texas, US (see details in table below), abalone enzyme (item #CST208) from ChemSci technologies, Belvidere IL, USA, Recombinant B-One (item #B-One-100 mL) enzyme from Kura Bioscience, buffer solution made with 5 mL of acetic acid and 7.71 g of ammonium acetate in 995 mL of pure water, and blank urine (item #OH2060) from Golden West Diagnostics.
Wells E1, F1, G1, and H1 designated as “Kura Pos. control drugs+Enz” contain the glucuronide drug standards in 50 μL DMSO mixed with […] of water and […] of Kura enzyme. The materials in this well were stored in frozen state before use.
Wells A3, B3, C3, and D3 designated as “DB pop removed Kura” contain the glucuronide drug standards in 50 μL DMSO and a suspended frozen mixture of […] of water and […] of Kura enzyme (see example 5: manufacturing process D). The materials in this well were stored in frozen state before use and the frozen enzyme and water mixture was removed prior to analysis of the well contents.

[2] = system: beta glucuronidase purified from abalone tissue; experiment: Storage stability of analytical standards in ready-to-use test kits at −20° C. with abalone beta-glucuronidase; assay type: physicochemical; settings: for stability of the standard, suspended solid state technology / stability of the standard, urine matrix interface technology: up to 14 days; for stability of the standard in ready-to-use kits (free drug degradant peak area normalized to codeine): kits made with suspended solid state and solid state (direct enzyme interface, urine matrix interface) technology, snap frozen at −20° C., LC-MS/MS
Method: as §1
FIG. 5. […] Negative controls were processed like that of mixed kits but excluded the respective beta-glucuronidase enzyme to measure non-specific degradation. Since 6-MAM was directly assayed complete degradation was estimated at the limit of detection (S/N≤10) established for the liquid chromatography tandem mass spectrometry method optimized for 6-MAM detection. All samples were extracted with acetonitrile prior to analysis. Where possible beta-glucuronidase enzyme was removed from suspended solid state, direct enzyme, and urine matrix samples prior to extraction. Acetonitrile was directly added to frozen mixed kits and negative controls to immediately degrade beta glucuronidase enzyme. Removal of enzyme prior to extraction and the quick addition of acetonitrile limited degradation associated with sample processing and provided a better measurement of storage stability. Peak area of 6-MAM was normalized to the response of codeine which was included to control for day-to-day and analytical variation. Data are presented as average±standard deviation (n=3-4). All experimental groups were manufactured and snap frozen at −20° C. prior to analysis.
as §2, §3

[3] = mixed kits, snap frozen and stored at −20° C.
[4] = kits stored at −20° C., up to 14 days

**Q.** With CC(=O)O[C@H]1C=C[C@H]2[C@H]3Cc4ccc(O)c5c4[C@@]2(CCN3C)[C@H]1O5 [6-MAM, 6-monoacetylmorphine] as the compound, how does the “stability of the standard in kits that mix enzyme with the analytical standard” value [1, 3] read?
**A.** no 6-MAM degradation occurred

**Q.** What about the “stability of the standard, direct enzyme interface technology” value ([2]; kits stored at −20° C.) of the same compound?
**A.** slowed the rate of degradation but did not prevent 6-MAM degradation

**Q.** And the “stability of the standard, suspended solid state technology” value ([2]; kits stored at −20° C.)?
**A.** fully protected; also recorded: fully protects and stabilizes

**Q.** And the “stability of the standard, urine matrix interface technology” value ([2]; kits stored at −20° C.)?
**A.** slowed the rate of degradation but did not prevent 6-MAM degradation

**Q.** What about the “time to significant degradation in mixed kits” value ([2]; mixed kits stored at −20° C.) of the same compound?
**A.** ≤ 4 days

**Q.** What about the “stability of the standard in kits that mix enzyme with the analytical standard” value [2, 3] of the same compound?
**A.** not stable

**Q.** And the “degradation during the manufacturing process (day 0) in mixed kits” value ([2]; snap freezing at −20° C., day 0)?
**A.** no degradation occurred

**Q.** Which results are given for C[N+](C)(CCC=C1c2ccccc2CCc2ccccc21)[C@@H]1O[C@H](C(=O)[O-])[C@@H](O)[C@@H](O)[C@H]1O [amitriptyline glucuronic acid standard, Amitriptyline N-beta-D-glucuronide]?
**A.** stability of the standard in ready-to-use kits (free drug degradant peak area normalized to codeine) [1]: fully protected and stabilized; stability of the standard in ready-to-use kits (free drug degradant peak area normalized to codeine) [2]: fully protected and stabilized

**Q.** How did the “stability of the standard in ready-to-use kits (free drug degradant peak area normalized to codeine)” value [1] turn out when CO[C@]12CC[C@@]3(C[C@@H]1[C@](C)(O)C(C)(C)C)[C@H]1Cc4ccc(O[C@@H]5O[C@H](C(=O)O)[C@@H](O)[C@H](O)[C@H]5O)c5c4[C@@]3(CCN1CC1CC1)[C@H]2O5 [buprenorphine glucuronic acid standard, Buprenorphine-3-beta-D-glucuronide] was run?
**A.** fully protected and stabilized

**Q.** And the “stability of the standard in ready-to-use kits (free drug degradant peak area normalized to codeine)” value [2]?
**A.** fully protected and stabilized

**Q.** With CN1CC[C@]23c4c5ccc(O[C@@H]6O[C@H](C(=O)O)[C@@H](O)[C@H](O)[C@H]6O)c4O[C@H]2C(=O)CC[C@H]3[C@H]1C5 [hydromorphone glucuronic acid standard, Hydromorphone 3-beta-D-glucuronide] as the compound, how does the “stability of the standard in ready-to-use kits (free drug degradant peak area normalized to codeine)” value [1] read?
**A.** fully protected and stabilized

**Q.** And the “stability of the standard in ready-to-use kits (free drug degradant peak area normalized to codeine)” value [2]?
**A.** fully protected and stabilized

**Q.** With O=C1Nc2ccc(Cl)cc2C(c2ccccc2Cl)=NC1O[C@@H]1O[C@H](C(=O)O)[C@@H](O)[C@H](O)[C@H]1O (stereo partly shown) [lorazepam glucuronic acid standard, Lorazepam glucuronide] as the compound, how does the “stability of the standard in ready-to-use kits (free drug degradant peak area normalized to codeine)” value [1] read?
**A.** fully protected and stabilized

**Q.** And the “day at which complete degradation occurred, direct enzyme interface technology” value ([1]; kits stored at −20° C.)?
**A.** 14 day

**Q.** What about the “day at which significant degradation was detected, direct enzyme interface technology” value ([1]; kits stored at −20° C.) of the same compound?
**A.** 4 day

**Q.** And the “storage time for which the standard was protected, direct enzyme interface technology” value ([1]; kits stored at −20° C.)?
**A.** 1 day

**Q.** What about the “stability of the standard, suspended solid state technology” value [1, 4] of the same compound?
**A.** fully protected

**Q.** What about the “stability of the standard, urine matrix interface technology” value [1, 4] of the same compound?
**A.** fully protected

**Q.** And the “stability of the standard in ready-to-use kits (free drug degradant peak area normalized to codeine)” value [2]?
**A.** fully protected and stabilized

**Q.** What about the “day at which complete degradation occurred, direct enzyme interface technology” value ([2]; kits stored at −20° C.) of the same compound?
**A.** 14 day

**Q.** And the “day at which significant degradation was detected, direct enzyme interface technology” value ([2]; kits stored at −20° C.)?
**A.** 4 day

**Q.** What about the “storage time for which the standard was protected, direct enzyme interface technology” value ([2]; kits stored at −20° C.) of the same compound?
**A.** 1 day

**Q.** And the “stability of the standard, suspended solid state technology” value ([2]; kits stored at −20° C.)?
**A.** fully protected

**Q.** What about the “stability of the standard, urine matrix interface technology” value ([2]; kits stored at −20° C.) of the same compound?
**A.** fully protected
